Laboratory results taken from publication PMC10384862, “[^212Pb]Pb-eSOMA-01: A Promising Radioligand for Targeted Alpha Therapy of Neuroendocrine Tumors” (Pharmaceuticals, 2023).
Like-named read-outs stand apart in the source and are kept apart here.

What was measured:
[1] = LogD7.4 by shake-flask method (n-octanol/PBS); type: physicochemical; details: ^203Pb-labeled compound; n-octanol/PBS pH 7.4; n = 3
Description: Distribution coefficients (LogD7.4) were determined by the shake-flask method. A sample containing the ^203Pb-labeled compound (~1 MBq) was added to a vial containing PBS (600 µL, pH 7.4) and n-octanol (600 µL). The vial was vortexed vigorously and then centrifuged at 10,000 rpm for 10 min for phase separation. Samples (100 µL) of the n-octanol and aqueous phases were taken and measured by a gamma counter. The LogD7.4 value was calculated by using the equation: LogD7.4 = log [(counts in the n-octanol phase)/(counts in the aqueous phase)]. Measurements were performed in triplicate.

[2] = In vitro stability in PBS; type: physicochemical; details: phosphate buffered saline, pH 7.4; ^203Pb-labeled; 24 h; 37 °C; n = 1; read-out: Stability in PBS, intact labeled ligand
Description: The ^203Pb-labeled compounds (~ 2 MBq) or the ^212Pb-labeled compounds (~ 70 kBq) were incubated in 300 µL of phosphate buffered saline (PBS; 0.1 M, pH 7.4) or mouse serum at 37 °C. The stability of the radiolabeled peptides was monitored at 1, 4, and 24 h post-incubation. The samples in PBS were directly analyzed by radio-HPLC without any pretreatment. However, samples of mouse serum were mixed with an equal volume of acetonitrile to precipitate the proteins. The solution was centrifuged twice for 5 min at 13,000 rpm, and the supernatant was analyzed by radio-HPLC using Method 1 for lead-203 and Method 2 for lead-212.

AR42J tumors = details: in vivo, cited from earlier work
[3] = Ex vivo biodistribution with lead-203; type: in vivo, mouse; details: mouse, 24 h post-injection
Description: (§1) Six-week-old male Balb/c nu/nu-specific and opportunistic pathogen-tree (SOPF) mice (Janvier Labs, Le Genest-Saint-Isle, France) were housed in individually ventilated cages, with four mice per cage. Upon arrival, the mice were acclimated for 1 week with access to food and water ad libitum. Mice were subcutaneously inoculated on the right shoulder with NCI-H69 cells (5 × 10^6 cells suspended in 100 μL of 1/3 Matrigel (Corning Inc.; Corning, NY, USA) and 2/3 Hank’s balanced salt solution (Gibco; Paisley, UK). NCI-H69 xenografts were allowed to grow for 3 weeks. Tumor sizes were 391 ± 173 mm^3 at the start of the studies.
(§2) To determine the biodistribution of the compounds after imaging (1, 4, and 24 h p.i.), blood was collected via retro-orbital puncture under isoflurane/O2 anesthesia, after which the mice were sacrificed via cervical dislocation. The tumor and organs of interest (heart, lungs, liver, spleen, stomach, large intestine, small intestine, pancreas, kidneys, muscle, skin, and bone) were excised, washed in PBS, blotted dry, and collected into tubes. The blood, tumor, and relevant organs were weighed and measured with a gamma counter. The percentage of injected dose per gram (% ID/g) was determined for each tissue sample and corrected for both the injected volume and the % ID present at the injection site (the tail).

H69 tumor bearing mice = experiment: Ex vivo biodistribution with lead-203; type: in vivo, mouse; details: after 4 h (so in the source); p < 0.05
Description: as §1, §2

[4] = SPECT/CT imaging with 203Pb-labeled ligands; type: in vivo; details: mouse; for tissue uptake per volume / tissue uptake per volume at 1 h / tissue uptake per volume at 24 h: male, Balb/c nu/nu, tumor, iv, 0.5 nmol, total radioactivity, read-out: Tumor uptake from SPECT images; for tissue uptake per volume: 1, 4 and 24 h after administration, n = 4; for tissue uptake per volume at 1 h: 1 h post-injection; for tissue uptake per volume at 24 h: 24 h post-injection; for half-life: kidneys, intravenous, ^203Pb-labeled, H69 tumor-bearing mice, read-out: Renal clearance half-life (converted)
Description: SPECT/CT imaging was performed in H69-xenografted Balb/c nu/nu mice at 1, 4, and 24 h after the administration of [^203Pb]Pb-eSOMA-01 or [^203Pb]Pb-eSOMA-02. Tumors were visible by SPECT/CT for both radioligands (Figure 3A,B). […] They increased over time for [^203Pb]Pb-eSOMA-01 (0.5 ± 0.03 at 4 h to 0.70 ± 0.11 at 24 h), while they remained nearly constant for [^203Pb]Pb-eSOMA-02 (0.30 ± 0.09 at 4 h and 0.4 ± 0.03 at 24 h).
as §1
Mice (n = 4 per compound) were intravenously injected in the tail vein with 100 μL of [^203Pb]Pb-eSOMA-01 (12.31 ± 1.44 MBq, 0.5 nmol) or [^203Pb]Pb-eSOMA-02 (13.06 ± 1.44 MBq, 0.5 nmol) containing Kolliphor HS 15 (Merck; Haarlerbergweg, The Netherlands) in PBS (0.06 mg/mL). At 1, 4, and 24 h post-injection (p.i.), mice were imaged in a prone position on a heated bed under 2% isoflurane/O2 anesthesia in a dedicated small-animal PET/SPECT/CT VECTOR5 scanner (MILabs B.V.; Utrecht, The Netherlands) with a high-sensitivity pinhole collimator (HE-GP-M, 1.6 mm pinholes). Whole-body SPECT images were acquired over one frame of 20 min (for 1 and 4 h time points) and two frames of 20 min (for 24 h time points) using a spiral scan in normal scan mode, in list-mode acquisition. This was followed by a whole-body normal CT scan (angle step 0.75 degrees, 50 kV tube voltage, 0.21 mA tube current). Reconstruction of the SPECT images was performed using the similarity-regulated SROSEM method (MILabs Rec 11.00 software), performing five iterations with a voxel size of 0.4 mm, using 72 keV ± 30% and 280 keV ± 8% energy windows for lead-203. Reconstructed volumes of SPECT scans were post-filtered with an isotropic three-dimensional Gaussian filter of 1 mm full width at half-maximum. Image processing and analyses of the reconstructed data were performed using the PMOD image analysis software version 3.9 (PMOD Technologies; Zurich, Switzerland) to calculate the percentage of injected dose per mL (% ID/mL). An Eppendorf tube filled with a solution of lead-203 of known activity was measured to determine the calibration factor.

[5] = blood, n = 4, read-out: Blood uptake
[6] = bone, n = 4, read-out: Bones uptake
[7] = heart, n = 4, read-out: Heart uptake
[8] = kidneys, n = 4, read-out: Kidneys uptake
[9] = large intestine, n = 4, read-out: Large Intestine uptake
[10] = liver, n = 4, read-out: Liver uptake
[11] = lungs, n = 4, read-out: Lungs uptake
[12] = muscle, n = 4, read-out: Muscle uptake
[13] = non-target organs other than kidneys, intravenous, organs other than kidneys, read-out: Uptakes in all the other non-target organs
[14] = pancreas, n = 4, read-out: Pancreas uptake
[15] = skin, n = 4, read-out: Skin uptake
[16] = small intestine, n = 4, read-out: Small Intestine uptake
[17] = spleen, n = 4, read-out: Spleen uptake
[18] = stomach, n = 4, read-out: Stomach uptake
[19] = tumor, n = 4, read-out: Tumor uptake

Structure (SMILES)	logD [1]	remaining at 24 h [2]	tissue uptake at 24 h [3, 5]	tissue uptake at 24 h [3, 6]	tissue uptake at 24 h [3, 7]	tissue uptake at 24 h [3, 8]	tissue uptake at 24 h [3, 9]	tissue uptake at 24 h [3, 10]	tissue uptake at 24 h [3, 11]	tissue uptake at 24 h [3, 12]	tissue uptake at 24 h [3, 13]	tissue uptake at 24 h [3, 14]	tissue uptake at 24 h [3, 15]	tissue uptake at 24 h [3, 16]	tissue uptake at 24 h [3, 17]	tissue uptake at 24 h [3, 18]	tissue uptake at 24 h [3, 19]	tissue uptake per volume [4]	tissue uptake per volume at 1 h [4]	tissue uptake per volume at 24 h [4]	also measured
C[C@@H](O)[C@H](NC(=O)[C@@H]1CSSC[C@H](NC(=O)[C@@H](Cc2ccccc2)NC(=O)CN2CCN(CC(N)=O)CCN(CC(N)=O)CCN(CC(N)=O)CC2)C(=O)N[C@@H](Cc2ccc(O)cc2)C(=O)N[C@H](Cc2c[nH]c3ccccc23)C(=O)N[C@@H](CCCCN)C(=O)N[C@@H]([C@@H](C)O)C(=O)N1)C(=O)O [[^203Pb]Pb-DOTAM-TATE, metal not drawn, reference compound]	-1.41 ± 0.01	> 97%																			Tumor uptake (AR42J tumors; 1 h): 13 % ID/g; Uptake in kidneys (AR42J tumors; 24 h): ~ 13 % ID/g
C[C@@H](O)[C@H](NC(=O)[C@@H]1CSSC[C@H](NC(=O)[C@@H](Cc2ccccc2)NC(=O)CN2CCC(NC(=O)CN3CCN(CC(N)=O)CCN(CC(N)=O)CCN(CC(N)=O)CC3)CC2)C(=O)N[C@@H](Cc2ccc(O)cc2)C(=O)N[C@H](Cc2c[nH]c3ccccc23)C(=O)N[C@@H](CCCCN)C(=O)N[C@@H]([C@@H](C)O)C(=O)N1)C(=O)O [[^203Pb]Pb-eSOMA-02, metal not drawn]	-1.88 ± 0.03	> 97%	0.17 ± 0.11 %ID/g	0.67 ± 0.04 %ID/g	0.09 ± 0.02 %ID/g	12.6 ± 0.02 %ID/g	0.41 ± 0.06 %ID/g	1.11 ± 0.05 %ID/g	0.53 ± 0.04 %ID/g	0.04 ± 0.07 %ID/g	< 1 %ID/g	0.83 ± 0.96 %ID/g	0.43 ± 0.09 %ID/g	0.24 ± 0.03 %ID/g	0.61 ± 0.15 %ID/g	0.67 ± 0.19 %ID/g	2.54 ± 0.36 %ID/g	3 to 4 %ID/mL	~4 %ID/mL	2 to 3 %ID/mL	More uptake in the kidneys compared to [203Pb]Pb-eSOMA-01 (H69 tumor bearing mice): around 41%; half-life [4]: 1450 ± 270 min
C[C@@H](O)[C@H](NC(=O)[C@@H]1CSSC[C@H](NC(=O)[C@@H](Cc2ccccc2)NC(=O)[C@H]2CC[C@H](CNC(=O)CN3CCN(CC(N)=O)CCN(CC(N)=O)CCN(CC(N)=O)CC3)CC2)C(=O)N[C@@H](Cc2ccc(O)cc2)C(=O)N[C@H](Cc2c[nH]c3ccccc23)C(=O)N[C@@H](CCCCN)C(=O)N[C@@H]([C@@H](C)O)C(=O)N1)C(=O)O [[^203Pb]Pb-eSOMA-01, metal not drawn]	-1.99 ± 0.03	> 97%	0.05 ± 0.02 %ID/g	0.27 ± 0.02 %ID/g	0.05 ± 0.01 %ID/g	7.44 ± 1.17 %ID/g	0.34 ± 0.08 %ID/g	0.86 ± 0.1 %ID/g	0.36 ± 0.05 %ID/g	0.18 ± 0.03 %ID/g	< 1 %ID/g	0.12 ± 0.02 %ID/g	0.03 ± 0.02 %ID/g	0.12 ± 0.02 %ID/g	0.22 ± 0.03 %ID/g	0.75 ± 0.34 %ID/g	2.89 ± 0.84 %ID/g	3 to 4 %ID/mL	~4 %ID/mL	2 to 3 %ID/mL	half-life [4]: 882 ± 144 min
